Patent publication US20250134949A1, “PROMININ-1 PEPTIDE FOR TREATING LUNG INJURY” (Children's Medical Center Corporation, priority 2017, published 2025)
One block for each compound: values may come before it. No end group written: not given here.

Columns and labels:
[1] = tested on: VEGFR2; experiment: PR1P induced VEGFR2 phosphorylation in Beas-2B cells with or without SU5416 (FACS); format: cell-based, human; conditions: then PR1P (125 μM) 20 min
Method: (§1) It was previously shown in part that PR1P binds VEGF, increases VEGF binding to VEGF receptors, and induces downstream VEGF signaling including the phosphorylation of VEGF receptor 2 and AKT. To determine whether PR1P mediation of VEGF signaling requires VEGFR2 activation, lung epithelial cells (Beas-2B) were treated with the specific VEGFR2 inhibitor SU5416 ([…]) or with vehicle alone as control for 24 hours and then exposed PR1P (125 μM) or vehicle for 20 min. Cells were then harvested and levels of phosphorylated VEGFR2 and AKT were assessed using FACS. […] These findings strongly support the notion that PR1P upregulation of VEGF signaling requires VEGFR-2 activation.
(§2) Serum-starved monolayers of Beas-2B cells were incubated in the presence or absence of SU5416 (20 μM) for 24 h on 10 cm tissue culture plates. After single washing with PBS, the cells were treated with 3 ml of starvation media in the presence of PR1P (125 […]) or vehicle as control for 20 minutes at 37° C. At the conclusion of the experiments, cells were prepared for FACS analysis using standard procedures. Cells were analyzed for levels of phosphorylated VEGFR2 and AKT using anti pAKT and pVEGFR2 antibodies (Cell signaling, Danvers MA).

[2] = tested on: AKT; experiment: PR1P induced AKT phosphorylation in Beas-2B cells with or without SU5416 (FACS); format: cell-based, human; conditions: then PR1P (125 μM) 20 min
Method: as §1, §2

[3] = Observation of ill effects during inhalation studies; format: in vivo, mouse; conditions: 24-hour experimental period, delivered directly into the lungs; data not shown
Excerpt: These and similar findings led many to believe that over-expression of VEGF in the lung could be curative in emphysema (54), however, enthusiasm for this type of therapy is tempered by clinical trials using systemic VEGF therapy (41) that were complicated by systemic and pulmonary toxicities including increased vascular permeability leading to hypotension (55) and tissue and lung edema (56, 57). […] The results outlined herein raise the possibility that a strategy to use PR1P to upregulate endogenous VEGF signaling in vivo may avoid toxicity seen with alternative and more conventional forms of VEGF therapy. […] PR1P could be used to avoid complications associated with constitutive VEGF over-expression or systemic VEGF treatment by stabilizing and potentiating the signaling of local endogenous VEGF. It will be important to clearly delineate the fate and pharmacokinetics of PR1P in evaluating its toxicity potential. Because of its small size, PR1P could also be more easily packaged as cargo inside nanometer or micron sized storage vehicles for tissue or cell targeted therapy.
8 week old female C3H/HENCrl (Charles River Laboratories, Cambridge, MA) mice (22±2 g) were placed in a whole-animal nebulization chamber (14×5×8 cm) and allowed to spontaneously inhale (20 min) nebulized LPS (Salmonela enterica, Sigma-Aldrich, St. Louis, MO), PR1P, scrambled peptide (SP), or VEGF. […]

[4] = tested on: VEGFR-2; experiment: Lung cell VEGFR-2 phosphorylation after inhalation of nebulized peptide (FACS); format: in vivo, mouse; conditions: live mice, nebulized (20 min), lung cells harvested 30 minutes after end of inhalation; compared to SP
Excerpt: VEGF mediates cell survival and apoptosis pathways via binding to and activation of VEGFR-2 and signaling through the PI3K/AKT pathway (13). […] To evaluate the effect of PR1P on VEGF signaling in the lung, both FACS and Western blotting were used to measure the levels of phosphorylated VEGFR-2 and AKT in the human lung respiratory epithelial cell line BEAS-2B in response to treatment with PR1P, scrambled peptide (SP), or VEGF. […] To determine whether PR1P also effectively modulated VEGF signaling in the lungs of animals (i.e. whether PR1P was bioactive in-vivo) live mice were treated with nebulized VEGF, SP or PR1P (20 min) and performed FACS analysis on lung cells harvested from treated animals 30 minutes after the end of inhalation. […]
Lungs were harvested from treated animals, cut into small pieces using surgical scissors and suspended and gently stirred in 3 ml serum free BEBM containing Liberase (2 mg ml, Sigma-Aldrich, St. Louis, MO). […] Cells were subsequently washed with FACS media and analyzed by a flow cytometer (BD Biosciences, San Jose, CA, USA) running FlowJo 7.2.2, software (Tomy Digital Biology. Tokyo, Japan).

[5] = in vivo; cited from earlier work

Compound: Cc1cc(C)c(/C=C2\C(=O)Nc3ccccc32)[nH]1 [SU5416]
effect of PR1P on the phosphorylation level of VEGFR-2 in presence of inhibitor [1]: significantly reduced
effect of PR1P on the phosphorylation level of AKT in presence of inhibitor [2]: significantly reduced

ill effects from therapy [3]: ill effects were not observed
Compound: DRVQRQTTTVVA [PR1P, DRVQRQTTTVVA]

Compound: VEGF
lung cell VEGFR-2 phosphorylation [4]: increased pVEGFR2

Compound: elastase: porcine pancreatic elastase (PPE) used intra-tracheally to induce emphysema phenotype
half-life of exogenous elastase administered into the animal lungs [5]: approximately 50 minutes
